Values quoted from earlier work as cited in US7429577B2, “Augmentation of atypical antipsychotic agent pharmacotherapy with chromium supplementation” (priority 2002, dated 2008).

How the values were obtained:
[1] = olanzapine treatment of patients
[2] = humans, in particular subjects with plasma cholesterol above the 200 μg/ml level
[3] = healthy volunteers, 200 μg chromium picolinate per day
[4] = obese Caucasian patients with type-II diabetes receiving sulphonylurea and metformin

Compound	levels of insulin, leptin, blood lipids; insulin resistance [1]	blood lipids [2]	LDL cholesterol decreased by [3] [%]	fasting blood glucose decreased by [3] [%]	glycosylated hemoglobin decreased by [3] [%]	total cholesterol decreased by [3] [%]	fasting insulin levels and glucose control [4]
Cc1cc2c(s1)Nc1ccccc1N=C2N1CCN(C)CC1 [olanzapine]	elevated levels of insulin, leptin, and blood lipids, as well as insulin resistance	–	–	–	–	–	–
chromium picolinate	–	efficacious in lowering blood lipids	11	24	19	13	lowering fasting insulin levels without impairing glucose control
